These results are taken from patent publication US20180251431A1 (VERTEX PHARMACEUTICALS INCORPORATED, priority 2016, published 2018).

Structures are written as SMILES.

For one experiment, the system named is HEK293 cells. Description: HEK293 VLCFA-LPC IC50 determination (13C-labeled C26:0 LPC by UHPLC/MS). It is filed as cell-based, human. To be noted: Homo sapiens, HEK293, 48 h, average of one or more replicates; 13C-labeled C26:0 LPC, 48 hours; read-out: Average HEK293 IC50. The gist of the method:
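Suspension HEK293 cells (final 0.5 million/mL after mixing with equal volume) incubated 48 hours with compound plus 13C-acetate (1.0 mg/mL in added media), shaking at 37° C. Lipids extracted with hexane/isopropanol or methanol, C13:0 LPC standard. UHPLC/MS of 13C-labeled C26:0 LPC (638.500/104.100 m/z); IC50 by four-parameter fit.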
Turning to `O=C(Nc1ccn(-c2ccc(C(F)(F)F)nc2)n1)C1(c2ccccc2F)CC1` [Compound 315, 1-(2-fluorophenyl)-N-(1-(6-(trifluoromethyl)pyridin-3-yl)-1H-pyrazol-3-yl)cyclopropane-1-carboxamide], the IC50 is greater than 5000 nM.
As for `O=C(Nc1ccn(-c2cncc(C(F)(F)F)c2)n1)C1(c2ccccc2F)CC1` [Compound 316, 1-(2-fluorophenyl)-N-[1-[5-(trifluoromethyl)-3-pyridyl]pyrazol-3-yl]cyclopropanecarboxamide], the IC50 is greater than 5000 nM.
On to `COc1ncccc1-n1ccc(NC(=O)C2(c3ccccc3F)CC2)n1` [Compound 317, 1-(2-fluorophenyl)-N-[1-(2-methoxy-3-pyridyl)pyrazol-3-yl]cyclopropanecarboxamide], for which the half-maximal inhibitory concentration (IC50) is greater than 5000 nM.
Take `N#Cc1cncc(-n2ccc(NC(=O)C3(c4ccccc4F)CC3)n2)c1` [Compound 318, N-[1-(5-cyano-3-pyridyl)pyrazol-3-yl]-1-(2-fluorophenyl)cyclopropanecarboxamide]: the half-inhibitory concentration (IC50) is greater than 5000 nM.
Still for that read-out and setting: then `COc1ccc(-n2ccc(NC(=O)C3(c4ccccc4F)CC3)n2)cn1` [Compound 319, 1-(2-fluorophenyl)-N-(1-(6-methoxypyridin-3-yl)-1H-pyrazol-3-yl)cyclopropane-1-carboxamide], with 58 nM; and `N#Cc1ncccc1-n1ccc(NC(=O)C2(c3ccccc3F)CC2)n1` [Compound 320, N-[1-(2-cyano-3-pyridyl)pyrazol-3-yl]-1-(2-fluorophenyl)cyclopropanecarboxamide], with greater than 5000 nM.
The same measure, in the same setting: the same measure for `COc1cc(-n2ccc(NC(=O)C3(c4ccccc4F)CC3)n2)cc(OC)c1OC` [Compound 321, 1-(2-fluorophenyl)-N-[1-(3,4,5-trimethoxyphenyl)pyrazol-3-yl]cyclopropanecarboxamide]: greater than 5000 nM; for `COc1ccc(-n2ccc(NC(=O)C3(c4ccccc4F)CC3)n2)cc1F` [Compound 322, N-[1-(3-fluoro-4-methoxy-phenyl)pyrazol-3-yl]-1-(2-fluorophenyl)cyclopropanecarboxamide]: 4000 nM.
In the case of `Cc1cncc(-n2ccc(NC(=O)C3(c4ccccc4F)CC3)n2)c1` [Compound 323, 1-(2-fluorophenyl)-N-[1-(5-methyl-3-pyridyl)pyrazol-3-yl]cyclopropanecarboxamide], the IC50 came out at 350 nM.
In the case of `O=C(Nc1ccn(-c2ccnc(C(F)(F)F)c2)n1)C1(c2ccccc2F)CC1` [Compound 324, 1-(2-fluorophenyl)-N-(1-(2-(trifluoromethyl)pyridin-4-yl)-1H-pyrazol-3-yl)cyclopropane-1-carboxamide], the IC50 is greater than 5000 nM.
On the same count and under the same terms, the same measure for `O=C(Nc1ccn(-c2cncc(Cl)c2)n1)C1(c2ccccc2F)CC1` [Compound 325, N-[1-(5-chloro-3-pyridyl)pyrazol-3-yl]-1-(2-fluorophenyl)cyclopropanecarboxamide]: 73 nM; for `N#Cc1ccc(-n2ccc(NC(=O)C3(c4ccccc4F)CC3)n2)cn1` [Compound 326, N-[1-(6-cyano-3-pyridyl)pyrazol-3-yl]-1-(2-fluorophenyl)cyclopropanecarboxamide]: greater than 5000 nM; for `COc1cncc(C#N)c1-n1ccc(NC(=O)C2(c3ccccc3F)CC2)n1` [Compound 327, N-[1-(3-cyano-5-methoxy-4-pyridyl)pyrazol-3-yl]-1-(2-fluorophenyl)cyclopropanecarboxamide]: greater than 5000 nM.
On to `O=C(Nc1ccn(-c2ccncc2C(F)(F)F)n1)C1(c2ccccc2F)CC1` [Compound 328, 1-(2-fluorophenyl)-N-[1-[3-(trifluoromethyl)-4-pyridyl]pyrazol-3-yl]cyclopropanecarboxamide], for which the IC50 was greater than 5000 nM.
On the same count and under the same terms, then `N#Cc1cc(-n2ccc(NC(=O)C3(c4ccccc4F)CC3)n2)ccn1` [Compound 329, N-[1-(2-cyano-4-pyridyl)pyrazol-3-yl]-1-(2-fluorophenyl)cyclopropanecarboxamide], with 3600 nM; and `COc1nccc(-n2ccc(NC(=O)C3(c4ccccc4F)CC3)n2)n1` [Compound 330, 1-(2-fluorophenyl)-N-[1-(2-methoxypyrimidin-4-yl)pyrazol-3-yl]cyclopropanecarboxamide], with 260 nM; and `Cc1nccc(-n2ccc(NC(=O)C3(c4ccccc4F)CC3)n2)n1` [Compound 331, 1-(2-fluorophenyl)-N-[1-(2-methylpyrimidin-4-yl)pyrazol-3-yl]cyclopropanecarboxamide], with greater than 5000 nM.
Same read-out and setting: then `O=C(Nc1ccn(-c2ccncc2Cl)n1)C1(c2ccccc2F)CC1` [Compound 333, N-[1-(3-chloro-4-pyridyl)pyrazol-3-yl]-1-(2-fluorophenyl)cyclopropanecarboxamide], with 950 nM.
On the same count and under the same terms, then `CC(C)(O)c1cc(-n2ccc(NC(=O)C3(c4ccccc4F)CC3)n2)ccn1` [Compound 334, 1-(2-fluorophenyl)-N-[1-[2-(1-hydroxy-1-methyl-ethyl)-4-pyridyl]pyrazol-3-yl]cyclopropanecarboxamide], with greater than 5000 nM.

Staying with this experiment, now noted: Homo sapiens, HEK293, HEK293 cells; average of one or more replicates; read-out: Average HEK293 IC50.
For the compound `Cc1cnn(CC(=O)Nc2ccn(-c3ccccc3)n2)c1` [Compound 290, 2-(4-methylpyrazol-1-yl)-N-(1-phenylpyrazol-3-yl)acetamide], the IC50 is greater than 5000 nM.
For the compound `Cc1ccn(CC(=O)Nc2ccn(-c3ccccc3)n2)n1` [Compound 291, 2-(3-methylpyrazol-1-yl)-N-(1-phenylpyrazol-3-yl)acetamide], the IC50 was greater than 5000 nM.
On to `O=C(Nc1ccn(-c2ccccc2)n1)C1(c2ccc3c(c2)OC(F)(F)O3)CC1` [Compound 292, 1-(2,2-difluoro-1,3-benzodioxo1-5-yl)-N-(1-phenylpyrazol-3-yl)cyclopropanecarboxamide], for which the IC50 is 85 nM.
In the case of `O=C(Cc1ccsc1)Nc1ccn(-c2ccnc(F)c2)n1` [Compound 293, N-[1-(2-fluoro-4-pyridyl)pyrazol-3-yl]-2-(3-thienyl)acetamide], the IC50 was determined as 980 nM.
Still for that read-out and setting: the same measure for `CCC(C)(C(=O)Nc1ccn(-c2ccnc(F)c2)n1)c1ccccc1` (centres unmarked) [Compound 294, N-[1-(2-fluoro-4-pyridyl)pyrazol-3-yl]-2-methyl-2-phenyl-butanamide]: 390 nM.
For the compound `O=C(Cn1cccc1)Nc1ccn(-c2ccnc(F)c2)n1` [Compound 295, N-[1-(2-fluoro-4-pyridyl)pyrazol-3-yl]-2-pyrrol-1-yl-acetamide], the IC50 was greater than 5000 nM.
The same measure, in the same setting: then `CC(C)(C(=O)Nc1ccn(-c2ccccc2)n1)c1ccccc1F` [Compound 296, 2-(2-fluorophenyl)-2-methyl-N-(1-phenylpyrazol-3-yl)propanamide], with 1700 nM; and `O=C(Cn1cccc1)Nc1ccn(-c2ccccc2)n1` [Compound 297, N-(1-phenylpyrazol-3-yl)-2-pyrrol-1-yl-acetamide], with 1800 nM; and `O=C(Cn1nccn1)Nc1ccn(-c2ccccc2)n1` [Compound 298, N-(1-phenylpyrazol-3-yl)-2-(triazol-2-yl)acetamide], with greater than 2000 nM.
In the case of `O=C(Cn1nccn1)Nc1ccn(-c2ccnc(F)c2)n1` [Compound 299, N-[1-(2-fluoro-4-pyridyl)pyrazol-3-yl]-2-(triazol-2-yl)acetamide], the IC50 was 5000 nM.
Consider `CCC(C)(C(=O)Nc1ccn(-c2ccccc2)n1)c1ccccc1` (centres unmarked) [Compound 300, 2-methyl-2-phenyl-N-(1-phenylpyrazol-3-yl)butanamide], for which the IC50 is 560 nM.
Still for that read-out and setting: the same measure for `O=C(Nc1ccn(-c2cc(F)cc(F)c2)n1)C1(c2ccccc2F)CC1` [Compound 301, N-[1-(3,5-difluorophenyl)pyrazol-3-yl]-1-(2-fluorophenyl)cyclopropanecarboxamide]: 140 nM.
Still for that read-out and setting: then `Cn1ccnc1CC(=O)Nc1ccn(-c2ccnc(F)c2)n1` [Compound 302, N-[1-(2-fluoro-4-pyridyl)pyrazol-3-yl]-2-(1-methylimidazol-2-yl)acetamide], with greater than 5000 nM; and `O=C(Cn1cncn1)Nc1ccn(-c2ccnc(F)c2)n1` [Compound 303, N-[1-(2-fluoro-4-pyridyl)pyrazol-3-yl]-2-(1,2,4-triazol-1-yl)acetamide], with greater than 5000 nM.
Same read-out and setting: the same measure for `O=C(Cc1ccon1)Nc1ccn(-c2ccnc(F)c2)n1` [Compound 304, N-[1-(2-fluoro-4-pyridyl)pyrazol-3-yl]-2-isoxazol-3-yl-acetamide]: greater than 5000 nM.
Regarding `O=C(Cc1ccon1)Nc1ccn(-c2ccccc2)n1` [Compound 306, 2-isoxazol-3-yl-N-(1-phenylpyrazol-3-yl)acetamide], the IC50 was greater than 2000 nM.
With `O=C(Cc1nccs1)Nc1ccn(-c2ccnc(F)c2)n1` [Compound 307, N-[1-(2-fluoro-4-pyridyl)pyrazol-3-yl]-2-thiazol-2-yl-acetamide], the IC50 was greater than 2000 nM.
On the same count and under the same terms, then `O=C(Nc1ccn(-c2cc(F)cc(F)c2)n1)C1(c2ccccc2)CC1` [Compound 308, N-(1-(3,5-difluorophenyl)-1H-pyrazol-3-yl)-1-phenylcyclopropane-1-carboxamide], with 140 nM.
Take `Cn1cccc1CC(=O)Nc1ccn(-c2ccnc(F)c2)n1` [Compound 309, N-[1-(2-fluoro-4-pyridyl)pyrazol-3-yl]-2-(1-methylpyrrol-2-yl)acetamide]: the IC50 is greater than 5000 nM.
Turning to `Cn1ccnc1CC(=O)Nc1ccn(-c2ccccc2)n1` [Compound 311, 2-(1-methylimidazol-2-yl)-N-(1-phenylpyrazol-3-yl)acetamide], the IC50 was greater than 5000 nM.
Same read-out and setting: the same measure for `O=C(Nc1ccn(-c2ccnc(F)c2)n1)C1(c2ccncc2F)CC1` [Compound 313, 1-(3-fluoro-4-pyridyl)-N-[1-(2-fluoro-4-pyridyl)pyrazol-3-yl]cyclopropanecarboxamide]: 1700 nM; for `COc1ccc(F)c(C2(C(=O)Nc3ccn(-c4ccnc(F)c4)n3)CC2)c1` [Compound 314, 1-(2-fluoro-5-methoxy-phenyl)-N-[1-(2-fluoro-4-pyridyl)pyrazol-3-yl]cyclopropanecarboxamide]: 57 nM.

As a reminder, the IC50 is the concentration that inhibits the measured activity by half.
